Experimental data published in patent publication US8598122B2, “Antagonistic peptides for frizzled-1 and frizzled-2” (Universiteit Maastricht, priority 2009, dated 2013).
Entries after “also recorded” stand apart in the source; their conditions may differ. Where a SMILES comes first, the peptide text is derived from it.

Assays:
[1] = tested on: frizzled receptor; test: Activity on the frizzled receptor (activity assay of Example 1), result in words; assay type: cell-based
Protocol: (§1) Human embryonic kidney (HEK) cells were used for screening. These cells have a luciferase construct stably transfected into the genome (see FIG. 2A), such that when the frizzled receptor is activated and β-catenin is increased, the luciferase is activated by transcription and light can be measured.
(§2) The peptides were tested by transfecting the frizzled-1 or the frizzled-2 receptor and addition of UM206(S-S) to the cell culture. For testing antagonistic activity, UM206 was added and the natural ligand Wnt3a was added, which is a natural stimulus for the canonical pathway.
Analogues of UM206 were prepared by solid phase peptide synthesis. Each amino acid residue was sequentially replaced by an alanine residue and antagonistic activity of the analogue was tested as described in the activity assay of Example 1. […] Titles indicate which amino acid residue was substituted by an alanine residue.

[2] = molecular target: T1, human Fzd-2 (Homo sapiens, UniProt Q14332); test: Antagonism of Wnt3a activation of human Fzd-2 (data not shown); assay type: cell-based
T1 construct: expressed in transfected cells
Description: (§3) In FIG. 3, Panel E, the efficacy of UM206 to block the Wnt3a-induced activation of luciferase activity in HEK293 superTOPflash cells transfected with different Fzds is shown.

[3] = molecular target: T2, human Fzd-1 (Homo sapiens, UniProt Q9UP38); test: Antagonism of Wnt3a activation of human Fzd-1 (data not shown); assay type: cell-based
T2 construct: expressed in transfected cells
Description: as §3

[4] = Pharmacokinetics in rats; assay type: in vivo
[5] = molecular target: T3, frizzled-2 (rFzd-2) (Rattus norvegicus, UniProt Q08464); test: Activity assay: Wnt3a-induced luciferase (superTOPflash) in HEK cells transfected with frizzled-2; assay type: cell-based
T3 construct: expressed in transfected cells; host or cells: HEK293 superTOPflash (human embryonic kidney), transient, pcDNA3.1/hygro
Protocol: as §1, §2
Day 2: Transfection 12-well plates • heat Fugene6 and DNA 15 minutes at RT • 2 ml serum-free medium in tube • add 3μl fugene • add 2 μg DNA • incubate 30 minutes at RT • wash with PBS • add 50 μtransfectiemix • add 1 ml antibiotica-free medium
Day 3: Add conditioned medium or UM206
Day 4: Luciferase activity measurements • remove medium • wash with PBS • add 500 μl ⅕ lysisbuffer • shake for 60 minutes • centrifuge in tube • 20 μl lysaat and 50 μl luciferase in new tube for measurement • vortex • measure
To determine the inhibitory constant of UM206-8, HEK293-superTOPflash cells were transfected with either rFzd-1 or -2 and incubated with Wnt3a (10^−9M) in the presence of increasing concentrations of either of the peptides (FIG. 15). For UM206, a biphasic inhibition curve was observed that was best fitted with a two-binding-state model.
The cell lines were cultured in 75 cm^2 culture flasks (Corning, Schiphol, the Netherlands) in Dulbeco's modified essential medium with L-glutamine (2 mM), 10% fetal calf serum (Invitrogen, Merelbeke, Belgium), and 1% gentamycin (Sigma-Aldrich, Zwijndrecht, The Netherlands). Before starting the experiment, the cell lines were treated with plasmocin 25 μg/ml (Invivogen, Toulose, France) and tested with a mycoalert mycoplasma detection kit (Lonza, Rockland Me., USA). Cells were transiently transfected with Fugene6 (Roche, Indianapolis Ind., USA) with plasmid DNA, pcDNA3.1/hygro (Invitrogen) with frizzled-1/2/4 or Wnts 3a-5a or with pcDNA3.0 (Invitrogen) containing the β-catenin or frizzled-5 sequence. After transfection, the cells were cultured for 24 hours in conditioned medium, collected from the cultured L-cells, L-cells with Wnt3a or 5a (Invitrogen). At the same moment the antagonist was added.

[6] = tested on: mice with myocardial infarction; test: Myocardial infarction model in mice, UM206 by osmotic minipump; assay type: in vivo
Protocol: All animals were subjected to extensive echocardiography studies for the assessment of myocardial infarct size, LV cavity dimensions and ventricular function. Echocardiography examination was performed under 2% isofluorane. Echocardiograms were recorded with Philips Sonos 5500 ultrasound system (Philips, Eindhoven, the Netherlands) using a 20-MHz linear probe.
The animals were anaesthetized with urethane ([…] body weight, i.p., Sigma-Aldrich) followed by intubation and connected to a rodent ventilator (Hugo Sachs, March-Hugstetten, Germany). Body temperature was maintained at 37° C. The mice were then allowed to stabilize prior to hemodynamic measurements. A high-fidelity catheter tip micromanometer (Mikro-tip1.4F, SPR-671; Millar Instruments, Houston TX, USA) was inserted through the right carotid artery into the left ventricular cavity. Ventricular pressure was measured. Maximal positive and negative pressure development (+dP/dt and −dP/dt) and heart rate were determined on a beat-to-beat basis. The heart was then stimulated by an i.v. ramp-infusion of dobutamine (Sigma-Aldrich) using a micro-injection pump (Model 200 Series, KdScientific, Boston, Mass., USA).
One-half of the hearts of the mice was embedded in paraffin and cut in 4 μm sections. The paraffin sections were rehydrated and washed in PBS. One section was stained with AZAN, allowing an accurate determination of the infarct size. To visualize the myofibroblasts in the infarct area, the sections were incubated with an antibody directed against a-smooth muscle actin (Sigma-Aldrich), followed by incubation with the peroxidase-conjugated secondary antibody (Vector laboratories). Nuclei were visualized by hematoxylin. Photos were taken with a Leica (CTR500, 63x/0.85) camera and analyzed with the Quantimet program (QWin/QGo). An examiner blinded to the groups of the animals obtained all measurements. For the experiments with Rhodamine-labeled UM206, frozen sections (4 μm) of mouse kidney and small intestine were used.

[7] = five weeks treatment, vs saline

T3 sequence (Q08464 29-570): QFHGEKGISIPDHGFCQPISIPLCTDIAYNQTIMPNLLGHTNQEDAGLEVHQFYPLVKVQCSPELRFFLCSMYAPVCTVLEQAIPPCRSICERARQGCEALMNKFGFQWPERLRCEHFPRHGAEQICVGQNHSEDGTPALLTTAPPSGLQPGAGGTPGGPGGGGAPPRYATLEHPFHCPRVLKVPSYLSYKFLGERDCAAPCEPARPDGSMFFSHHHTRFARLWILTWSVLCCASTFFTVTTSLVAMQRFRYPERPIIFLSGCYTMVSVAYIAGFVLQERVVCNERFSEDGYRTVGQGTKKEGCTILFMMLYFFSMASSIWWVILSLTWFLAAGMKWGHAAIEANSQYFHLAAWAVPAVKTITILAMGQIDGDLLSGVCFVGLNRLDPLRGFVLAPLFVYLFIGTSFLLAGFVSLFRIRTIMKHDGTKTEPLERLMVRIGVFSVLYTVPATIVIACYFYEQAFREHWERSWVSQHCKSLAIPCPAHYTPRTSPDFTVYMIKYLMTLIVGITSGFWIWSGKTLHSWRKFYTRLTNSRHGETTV
T2 sequence (Q9UP38 70-647): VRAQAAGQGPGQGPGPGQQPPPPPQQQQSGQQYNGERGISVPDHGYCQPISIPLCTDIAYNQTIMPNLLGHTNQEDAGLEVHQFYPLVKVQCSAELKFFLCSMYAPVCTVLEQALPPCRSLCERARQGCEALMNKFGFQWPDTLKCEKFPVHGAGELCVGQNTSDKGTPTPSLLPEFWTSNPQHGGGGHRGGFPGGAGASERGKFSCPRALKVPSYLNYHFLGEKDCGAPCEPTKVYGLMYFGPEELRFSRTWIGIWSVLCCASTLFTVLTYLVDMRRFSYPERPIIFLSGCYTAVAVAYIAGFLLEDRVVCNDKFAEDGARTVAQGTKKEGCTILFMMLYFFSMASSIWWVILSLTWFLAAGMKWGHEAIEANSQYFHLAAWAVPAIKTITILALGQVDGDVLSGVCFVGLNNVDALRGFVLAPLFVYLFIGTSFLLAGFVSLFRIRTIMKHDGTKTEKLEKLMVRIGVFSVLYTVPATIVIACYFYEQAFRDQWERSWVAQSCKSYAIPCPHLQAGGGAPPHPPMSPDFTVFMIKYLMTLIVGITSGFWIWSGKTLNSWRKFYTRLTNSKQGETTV
T1 sequence (Q14332 24-565): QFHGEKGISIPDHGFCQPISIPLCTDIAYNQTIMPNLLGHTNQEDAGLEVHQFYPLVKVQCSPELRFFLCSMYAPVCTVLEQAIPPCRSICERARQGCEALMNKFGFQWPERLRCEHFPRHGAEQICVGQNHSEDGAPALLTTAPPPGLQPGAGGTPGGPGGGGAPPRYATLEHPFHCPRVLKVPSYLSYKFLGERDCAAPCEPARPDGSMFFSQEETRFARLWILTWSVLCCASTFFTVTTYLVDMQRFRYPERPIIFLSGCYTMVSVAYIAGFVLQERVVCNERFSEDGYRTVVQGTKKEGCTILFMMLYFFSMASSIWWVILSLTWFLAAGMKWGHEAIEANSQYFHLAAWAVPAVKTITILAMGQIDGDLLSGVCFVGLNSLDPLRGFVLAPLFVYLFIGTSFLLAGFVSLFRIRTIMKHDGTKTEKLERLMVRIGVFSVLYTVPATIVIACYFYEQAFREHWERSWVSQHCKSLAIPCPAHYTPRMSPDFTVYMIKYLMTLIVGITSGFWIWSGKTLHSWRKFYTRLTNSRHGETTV

In the case of `CSCC[C@H](NC(=O)CNC(=O)[C@H](CCC(=O)O)NC(=O)[C@H](CO)NC(=O)[C@@H](NC(=O)[C@H](CCCCN)NC(=O)[C@H](CC(N)=O)NC(=O)[C@H](CS)NC(C)=O)[C@@H](C)O)C(=O)N[C@@H](CC(=O)O)C(=O)NCC(=O)N[C@@H](CS)C(=O)N[C@@H](CCC(=O)O)C(=O)N[C@@H](CC(C)C)C(N)=O` [UM206, Ac-Cys-Asn-Lys-Thr-Ser-Glu-Gly-Met-Asp-Gly-Cys-Glu-Leu-NH2] (Ac-CNKTSEGMDGCEL-NH2), the “Activity on the frizzled receptor (in words)” value [1] is reported as “very potent antagonist”, the “IC50 (range in words)” value [1] is reported as “in the nanomolar range” and the “Antagonizing activation of human Fzd-2 by Wnt3a” value [2] is reported as “fully effective”. The “Antagonizing activation of human Fzd-1 by Wnt3a” value [3] was “fully effective”, the half-life [4] was “around 90 minutes” and the “Higher affinity for rFzd-2 than for rFzd-1” value [5] was about 100 fold. The “Selectivity frizzled-2 over frizzled-1” value [5] was “slightly more selective for frizzled-2 over frizzled-1”, the “Blocking of Wnt3a-induced luciferase activity, frizzled-2” value ([5]; increasing amounts of antagonist) was “completely and concentration-dependently blocked” and the “Blocking of Wnt3a-induced luciferase activity, rFzd-2” value ([5]; peptide 1.10^−8 M) was “blocked almost completely; also recorded: abolished the induction of luciferase activity almost completely”. The “Effect of the antagonist on its own on luciferase activity” value ([5]; without Wnt3a) was “no effect”, the “tangents on the pressure time curve (dP/dt)” value ([6]; Millar catheter in left ventricle, vs saline) was “significantly steeper” and the “change of ejection fraction (echocardiography)” value ([6]; UM206-treated vs saline) was “doubling”. For the same compound, the “reduction in end diastolic volume of the left ventricle” value ([6]; UM206-treated vs saline) was 40%, the AoD ([6]; echocardiography, AVG) was 0.18 cm and the EDV_L ([6]; echocardiography, AVG) was 0.132 cm^3. The EF_L ([6]; echocardiography, AVG) was 31.4%, the ESV_L ([6]; echocardiography, AVG) was 0.090 cm^3 and the FS ([6]; echocardiography, AVG) was 13.20%. For the same compound, the IVS anterior ([6]; echocardiography, AVG) was 8.10%, the IVSd anterior wall ([6]; echocardiography, AVG) was 0.07 cm and the IVSd posterior wall ([6]; echocardiography, AVG) was 0.09 cm. The IVSs anterior wall ([6]; echocardiography, AVG) was 0.07 cm, the IVSs posterior wall ([6]; echocardiography, AVG) was 0.14 cm and the LVAs ([6]; echocardiography, AVG) was 0.30 cm^2. For the same compound, the LVIDd ([6]; echocardiography, AVG) was 0.59 cm, the LVIDs ([6]; echocardiography, AVG) was 0.52 cm and the SV_L ([6]; echocardiography, AVG) was 0.041 cm^3. The LVLd ([6]; echocardiography, AVG, first listing (r8)) was 0.91 cm, the LVLs ([6]; echocardiography, AVG, first listing (r10)) was 0.86 cm and the LVLd ([6]; echocardiography, AVG, second listing (r12)) was 0.95 cm. The LVLs ([6]; echocardiography, AVG, second listing (r13)) was 0.89 cm, the LVAd ([6]; echocardiography, mice post-MI, AVG) was 0.38 cm^2 and the “mortality / survival after MI” value ([6]; five weeks after MI, 6 microgram/kg/day minipump, saline 35% died) was “not a single mouse had died; also recorded: completely prevented the mortality”. For the same compound, the “wet lung weight of surviving saline-treated mice higher than in UM206-treated mice” value ([6]; five weeks post-MI) was 40%, the “blood vessels in the infarct area” value [6, 7] was “increased amount of blood vessels” and the “collagen levels in the infarct area” value [6, 7] was “reduced collagen levels”. For the same compound, the “a-SMA levels in infarcts (qPCR, Western blotting)” value ([6]; five-week-old infarcts, vs saline) was “significantly higher”, the Diastolic pressure ([6]; hemodynamic measurements, AVG) was 1.27 mmHg and the Left ventricular pressure ([6]; hemodynamic measurements, AVG) was 10.14 mmHg. The Maximum negative slope ([6]; hemodynamic measurements, AVG) was −2542.08 mmHg/sec, the Maximum negative slope/pressure ([6]; hemodynamic measurements, AVG) was 32.84 s⁻¹ and the Maximum positive slope ([6]; hemodynamic measurements, AVG) was 5343.84 mmHg/sec. For the same compound, the Maximum positive slope/pressure ([6]; hemodynamic measurements, AVG) was 69.13 s⁻¹, the “Pressure of negative slope” value ([6]; hemodynamic measurements, AVG) was −9.44 mmHg and the “Pressure of positive slope” value ([6]; hemodynamic measurements, AVG) was 17.78 mmHg. The Systolic pressure ([6]; hemodynamic measurements, AVG) was 27.93 mmHg, the Heart rate ([6]; hemodynamic measurements, mean of 26 animals) was 106.32 beats/min and the amount of myofibroblasts ([6]; in vivo model of myocardial infarction, in comparison to 4%) was 20%. For the same compound, the “adverse effects of chronic administration” value ([6]; mouse, in vivo) was “did not observe any adverse effects”, the “effects on other organs known to contain Fzd-2, including kidney and small intestine” value ([6]; mouse, in vivo) was “did not observe any effects” and the “myofibroblast numbers in the infarct area relative to saline-treated mice” value ([6]; two weeks post-MI) was “more than four-fold; also recorded: four-fold”. For the same compound, the infarct area size ([6]; vs saline-treated mice, 2 and 5 weeks after MI) was “significantly smaller” and the “thickness of the infarct area” value ([6]; vs saline, both time points) was “significantly thicker”.
